According to publication PMC6848746 (Psychopharmacology, 2019):

Assays:
DAT = DAT (Rattus norvegicus, UniProt P23977); assay: DAT-mediated release of [3H]MPP+ from rat brain synaptosomes; format: biochemical; conditions: for DAT/NET ratio: (DAT EC50)^-1 ÷ (NET EC50)^-1; for DAT/NET ratio / DAT/SERT ratio: higher value = greater DAT selectivity; for DAT/SERT ratio: (DAT EC50)^-1 ÷ (SERT EC50)^-1; for fold lower release potency at DAT: relative to SERT (MDAI: relative to SERT and NET), synaptosomal release; for Emax: read-out: DAT-mediated release Emax
Sequence of DAT (P23977 whole entry): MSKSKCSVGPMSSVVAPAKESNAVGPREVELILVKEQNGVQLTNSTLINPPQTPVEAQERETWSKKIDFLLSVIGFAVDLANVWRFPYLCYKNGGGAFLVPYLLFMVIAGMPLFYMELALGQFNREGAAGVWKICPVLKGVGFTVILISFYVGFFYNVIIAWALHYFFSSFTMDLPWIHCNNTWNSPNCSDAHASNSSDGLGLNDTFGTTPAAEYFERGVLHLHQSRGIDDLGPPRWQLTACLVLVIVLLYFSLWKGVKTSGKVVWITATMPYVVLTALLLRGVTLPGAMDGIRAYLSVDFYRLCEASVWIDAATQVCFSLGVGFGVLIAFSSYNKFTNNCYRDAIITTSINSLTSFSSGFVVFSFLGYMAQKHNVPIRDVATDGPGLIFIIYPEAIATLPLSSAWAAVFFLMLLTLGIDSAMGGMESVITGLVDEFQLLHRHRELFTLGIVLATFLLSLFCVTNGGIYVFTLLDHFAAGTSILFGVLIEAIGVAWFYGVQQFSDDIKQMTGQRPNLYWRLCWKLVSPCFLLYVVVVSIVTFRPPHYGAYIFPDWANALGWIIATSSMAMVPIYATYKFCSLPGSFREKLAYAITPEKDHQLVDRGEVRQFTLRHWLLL

NET = NET (Rattus norvegicus, UniProt Q63380); assay: NET-mediated release of [3H]MPP+ from rat brain synaptosomes; format: biochemical; conditions: read-out: NET-mediated release Emax
Sequence of NET (Q63380 1-617): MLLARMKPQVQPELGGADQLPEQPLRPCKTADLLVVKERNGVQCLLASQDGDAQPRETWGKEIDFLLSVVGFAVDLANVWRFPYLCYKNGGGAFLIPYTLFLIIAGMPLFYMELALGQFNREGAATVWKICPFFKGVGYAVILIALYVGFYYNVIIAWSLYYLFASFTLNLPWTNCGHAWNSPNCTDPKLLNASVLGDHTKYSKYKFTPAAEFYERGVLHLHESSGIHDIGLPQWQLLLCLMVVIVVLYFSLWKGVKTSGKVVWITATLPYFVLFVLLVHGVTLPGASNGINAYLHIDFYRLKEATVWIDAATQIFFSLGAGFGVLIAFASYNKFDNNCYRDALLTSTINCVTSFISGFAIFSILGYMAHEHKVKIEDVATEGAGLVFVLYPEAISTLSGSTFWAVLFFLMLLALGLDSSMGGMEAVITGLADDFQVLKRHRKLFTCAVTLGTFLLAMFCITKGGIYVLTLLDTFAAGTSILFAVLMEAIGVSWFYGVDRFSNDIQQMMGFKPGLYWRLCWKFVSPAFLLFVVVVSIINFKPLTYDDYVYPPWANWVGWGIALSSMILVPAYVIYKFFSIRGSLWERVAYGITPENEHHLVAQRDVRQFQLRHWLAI

5-HT1A = biological target: T1, 5-HT1A (Homo sapiens, UniProt P08908); assay: Radioligand binding
T1 sequence (P08908 1-422): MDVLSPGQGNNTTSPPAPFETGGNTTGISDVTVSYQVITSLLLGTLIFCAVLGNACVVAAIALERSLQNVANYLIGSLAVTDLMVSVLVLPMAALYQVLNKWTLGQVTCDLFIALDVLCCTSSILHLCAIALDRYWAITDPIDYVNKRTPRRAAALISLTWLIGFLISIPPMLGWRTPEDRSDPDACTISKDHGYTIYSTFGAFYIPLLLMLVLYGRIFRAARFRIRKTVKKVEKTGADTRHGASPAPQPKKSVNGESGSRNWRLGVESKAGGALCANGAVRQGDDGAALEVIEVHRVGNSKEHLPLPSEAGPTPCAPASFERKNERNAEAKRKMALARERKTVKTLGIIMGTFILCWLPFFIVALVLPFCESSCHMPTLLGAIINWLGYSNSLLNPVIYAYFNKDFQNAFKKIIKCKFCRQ

5-HT1E = 5-HT1E (Homo sapiens, UniProt P28566); assay: Radioligand binding
Sequence of 5-HT1E (P28566 whole entry): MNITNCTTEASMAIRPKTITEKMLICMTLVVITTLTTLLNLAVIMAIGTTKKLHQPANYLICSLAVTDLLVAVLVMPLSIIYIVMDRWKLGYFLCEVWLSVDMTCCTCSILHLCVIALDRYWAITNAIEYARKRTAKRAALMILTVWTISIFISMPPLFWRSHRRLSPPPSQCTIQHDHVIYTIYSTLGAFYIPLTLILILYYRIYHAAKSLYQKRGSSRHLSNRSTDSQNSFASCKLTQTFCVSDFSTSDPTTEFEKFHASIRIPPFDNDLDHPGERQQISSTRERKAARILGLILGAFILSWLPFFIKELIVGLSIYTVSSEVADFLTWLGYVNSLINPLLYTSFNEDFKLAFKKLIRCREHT

5-HT2B = 5-HT2B (Homo sapiens, UniProt P41595); assay: Radioligand binding
Sequence of 5-HT2B (P41595 whole entry): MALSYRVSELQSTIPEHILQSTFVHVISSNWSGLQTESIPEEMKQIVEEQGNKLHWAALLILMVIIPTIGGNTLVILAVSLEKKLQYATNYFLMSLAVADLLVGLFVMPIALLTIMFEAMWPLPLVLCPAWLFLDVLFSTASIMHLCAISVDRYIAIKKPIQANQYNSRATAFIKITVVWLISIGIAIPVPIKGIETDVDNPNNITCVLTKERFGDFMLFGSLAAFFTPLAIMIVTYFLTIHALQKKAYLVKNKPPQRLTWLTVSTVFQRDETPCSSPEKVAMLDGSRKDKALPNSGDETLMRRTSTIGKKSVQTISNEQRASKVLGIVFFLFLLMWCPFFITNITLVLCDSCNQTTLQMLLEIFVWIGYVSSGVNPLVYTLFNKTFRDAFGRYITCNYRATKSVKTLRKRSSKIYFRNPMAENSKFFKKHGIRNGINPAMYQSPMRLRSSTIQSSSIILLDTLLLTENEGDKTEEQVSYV

α1A = biological target: T2, α1A (Homo sapiens, UniProt P35348); assay: Radioligand binding
T2 sequence (P35348 1-466): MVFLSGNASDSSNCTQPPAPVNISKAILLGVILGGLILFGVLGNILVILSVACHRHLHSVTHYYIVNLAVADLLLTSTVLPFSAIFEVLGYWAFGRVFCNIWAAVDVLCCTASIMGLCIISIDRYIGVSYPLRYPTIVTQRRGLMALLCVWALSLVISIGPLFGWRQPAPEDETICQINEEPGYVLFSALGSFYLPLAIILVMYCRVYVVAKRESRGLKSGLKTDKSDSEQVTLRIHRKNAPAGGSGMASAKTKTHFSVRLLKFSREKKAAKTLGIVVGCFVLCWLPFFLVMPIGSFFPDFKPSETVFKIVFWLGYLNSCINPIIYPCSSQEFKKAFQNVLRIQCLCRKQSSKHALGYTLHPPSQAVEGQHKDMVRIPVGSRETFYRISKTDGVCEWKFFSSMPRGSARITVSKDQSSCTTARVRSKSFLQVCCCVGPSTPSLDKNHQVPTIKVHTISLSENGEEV

α1B = biological target: T3, α1B (Homo sapiens, UniProt P35368); assay: Radioligand binding
T3 sequence (P35368 1-520): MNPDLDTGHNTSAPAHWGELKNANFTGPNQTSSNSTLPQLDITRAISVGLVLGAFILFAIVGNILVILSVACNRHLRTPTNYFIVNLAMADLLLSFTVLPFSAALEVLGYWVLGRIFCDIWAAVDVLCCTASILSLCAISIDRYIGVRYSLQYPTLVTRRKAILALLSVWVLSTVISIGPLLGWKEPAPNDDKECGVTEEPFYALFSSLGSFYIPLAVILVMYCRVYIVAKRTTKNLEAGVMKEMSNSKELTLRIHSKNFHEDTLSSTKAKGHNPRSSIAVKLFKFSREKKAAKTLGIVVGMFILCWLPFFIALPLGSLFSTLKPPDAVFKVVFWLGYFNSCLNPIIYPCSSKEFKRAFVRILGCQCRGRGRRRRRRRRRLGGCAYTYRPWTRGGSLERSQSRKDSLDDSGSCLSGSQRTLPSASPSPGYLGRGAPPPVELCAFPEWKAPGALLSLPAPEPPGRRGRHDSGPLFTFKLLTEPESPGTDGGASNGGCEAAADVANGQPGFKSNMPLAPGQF

α1D = biological target: T4, α1D (Homo sapiens, UniProt P25100); assay: Radioligand binding
T4 sequence (P25100 1-572): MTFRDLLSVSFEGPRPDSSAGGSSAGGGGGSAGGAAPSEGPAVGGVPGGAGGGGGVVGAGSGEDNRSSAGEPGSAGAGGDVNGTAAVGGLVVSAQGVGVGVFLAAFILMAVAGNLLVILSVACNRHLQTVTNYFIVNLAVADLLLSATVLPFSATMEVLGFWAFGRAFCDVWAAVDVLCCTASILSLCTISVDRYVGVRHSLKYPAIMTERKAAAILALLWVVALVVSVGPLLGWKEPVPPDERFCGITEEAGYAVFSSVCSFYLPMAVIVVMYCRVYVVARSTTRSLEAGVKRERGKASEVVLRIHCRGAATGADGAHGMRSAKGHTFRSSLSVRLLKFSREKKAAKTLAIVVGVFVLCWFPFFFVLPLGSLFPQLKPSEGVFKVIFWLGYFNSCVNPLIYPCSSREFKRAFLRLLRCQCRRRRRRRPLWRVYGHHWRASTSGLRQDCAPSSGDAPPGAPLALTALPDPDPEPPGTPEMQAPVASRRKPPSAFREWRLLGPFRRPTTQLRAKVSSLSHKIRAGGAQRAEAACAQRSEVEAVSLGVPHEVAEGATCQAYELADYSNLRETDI

β2 = β2 (Homo sapiens, UniProt P07550); assay: Radioligand binding
Sequence of β2 (P07550 whole entry): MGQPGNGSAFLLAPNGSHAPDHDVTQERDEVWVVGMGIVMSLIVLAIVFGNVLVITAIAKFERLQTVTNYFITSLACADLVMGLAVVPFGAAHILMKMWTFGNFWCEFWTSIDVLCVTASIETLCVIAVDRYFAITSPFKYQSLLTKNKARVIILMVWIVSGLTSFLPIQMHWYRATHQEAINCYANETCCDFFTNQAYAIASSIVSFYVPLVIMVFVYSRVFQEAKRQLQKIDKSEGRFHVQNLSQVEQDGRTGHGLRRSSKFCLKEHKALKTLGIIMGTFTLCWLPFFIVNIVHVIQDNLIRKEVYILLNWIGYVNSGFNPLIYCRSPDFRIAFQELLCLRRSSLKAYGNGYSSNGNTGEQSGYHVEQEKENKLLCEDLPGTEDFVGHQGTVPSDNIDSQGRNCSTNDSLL

σ2 = biological target: T5, σ2 (Rattus norvegicus, UniProt Q5U3Y7); assay: Radioligand binding
T5 sequence (Q5U3Y7 1-176): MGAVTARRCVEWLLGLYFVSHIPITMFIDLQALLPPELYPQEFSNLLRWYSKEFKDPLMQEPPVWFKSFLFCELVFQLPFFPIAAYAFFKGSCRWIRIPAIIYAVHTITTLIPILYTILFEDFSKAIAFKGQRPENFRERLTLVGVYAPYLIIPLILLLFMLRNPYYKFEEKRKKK

Compound	EC50 (DAT)	DAT/NET ratio (DAT)	DAT/SERT ratio (DAT)	fold lower release potency at DAT (DAT)	Emax (NET)	Ki (5-HT1A)	Ki (5-HT1E)	Ki (5-HT2B)	Ki (α1A)	Ki (α1B)	Ki (α1D)	Ki (β2)	Ki (σ2)	Emax (DAT)	displacement at 5-HT2B receptor (5-HT2B; at 10 μM, primary binding assay)
COc1cc2c(cc1C)CC(N)C2 (stereo not shown) [MMAI, 5-methoxy-6-methyl-2-aminoindan]	> 10000 nM	>0.31	> 0.003	100 fold	105%	1080 nM	> 10 µM	0.902 ± 0.445 µM	> 10 µM	> 10 µM	> 10 µM	> 10 µM	> 10 µM		
NC1Cc2ccccc2C1 [2-AI, 2-aminoindan]	439 ± 38 nM	0.20	>22.78		95%	> 10000 nM	> 10 µM	> 10 µM	> 10 µM	> 10 µM	> 10 µM	> 10 µM	> 10 µM	106%	
COc1ccc2c(c1)CC(N)C2 (stereo not shown) [5-MeO-AI, 5-methoxy-2-aminoindan]	2650 nM	0.33	0.05	20 fold	101%	2500 nM	> 10 µM	4.79 µM	> 10 µM	> 10 µM	> 10 µM	> 10 µM	> 10 µM	117%	
NC1Cc2cc3c(cc2C1)OCO3 [MDAI, 5,6-methylenedioxy-2-aminoindan]	1330 nM	0.09	0.08	10 fold	99%	> 10000 nM	> 10 µM	> 10 µM	> 10 µM	> 10 µM	> 10 µM	> 10 µM	> 10 µM	113%	< 50%
